# Measurements published in US12692238B2, “Substituted pyridazinone herbicides” (FMC CORPORATION, priority 2020, dated 2026).
# Key:
# Format in all cases: in vivo
# [1] = tested on: foxtail, giant (giant foxtail, Setaria faberi); experiment: Test A postemergence, foxtail, giant; conditions: 10 days
# Description: (§1) Seeds of plant species selected from barnyardgrass (Echinochloa crus-galli), blackgrass (Alopecurus myosuroides), corn (Zea mays), foxtail, giant (giant foxtail, Setaria faberi), foxtail, green (green foxtail, Setaria viridis), goosegrass (Eleusine indica), kochia (Bassia scoparia), oat, wild (wild oat, Avena fatua), palmer amaranth (pigweed, palmer, Amaranthus palmeri), redroot pigweed (Amaranthus retroflexus), ragweed (common ragweed, Ambrosia artemisiifolia), ryegrass, Italian (Italian ryegrass, Lolium multiflorum), and soybean (Glycine max) were planted into a blend of loam soil and sand and treated preemergence with a directed soil spray using test chemicals formulated in a non-phytotoxic solvent mixture which included a surfactant.
# (§2) At the same time, plants selected from these crop and weed species and also wheat (Triticum aestivum), galium (catchweed bedstraw, Galium aparine) and horseweed (Erigeron canadensis) were planted in pots containing the same blend of loam soil and sand and treated with postemergence applications of test chemicals formulated in the same manner. Plants ranged in height from 2 to 10 cm and were in the one- to two-leaf stage for the postemergence treatment. Treated plants and untreated controls were maintained in a greenhouse for 10 days, after which time all treated plants were compared to untreated controls and visually evaluated for injury. Plant response ratings, summarized in Table A, are based on a 0 to 100 scale where 0 is no effect and 100 is complete control. A dash (-) response means no test result.
# [2] = tested on: ryegrass, Italian (Italian ryegrass, Lolium multiflorum); experiment: Test A postemergence, ryegrass, Italian; conditions: 10 days
# Method in brief: (§3)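 Both application timings shared one formulation: test chemical in non-phytotoxic solvent with surfactant. Preemergence used a directed soil spray at sowing, postemergence a spray on 2–10 cm seedlings. Untreated plants served as reference for 0–100 visual ratings after 10 days.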
# corn (Zea mays) [3] = experiment: Test A postemergence, corn; conditions: 10 days
# Method in brief: as §3
# [4] = tested on: palmer amaranth (pigweed, palmer, Amaranthus palmeri); experiment: Test A preemergence, palmer amaranth; conditions: 0 to 100 scale, 10 days
# Description: as §1, §2
# [5] = tested on: foxtail, giant (giant foxtail, Setaria faberi); experiment: Test A preemergence, foxtail, giant; conditions: 0 to 100 scale, 10 days
# Description: as §1, §2
# soybean (Glycine max) [6] = experiment: Test A postemergence, soybean; conditions: 10 days
# Description: as §1, §2
# [7] = tested on: galium (catchweed bedstraw, Galium aparine); experiment: Test A postemergence, galium; conditions: 10 days
# Method in brief: as §3
# [8] = tested on: goosegrass (Eleusine indica); experiment: Test A postemergence, goosegrass; conditions: 10 days
# Description: as §1, §2
# [9] = tested on: sedge, umbrella (small-flower umbrella sedge, Cyperus difformis); experiment: Test B flooded paddy test, sedge, umbrella; conditions: 250 g ai/ha, Flood; visually evaluated after 10 to 14 days
# Method in brief: (§4)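 Water-applied treatment of 2-leaf plants in pots kept flooded at 3 cm. Visual control rating (0–100) against untreated plants after 10–14 greenhouse days.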
# [10] = tested on: goosegrass (Eleusine indica); experiment: Test A preemergence, goosegrass; conditions: 0 to 100 scale, 10 days
# Description: as §1, §2
# [11] = tested on: ragweed (common ragweed, Ambrosia artemisiifolia); experiment: Test A preemergence, ragweed; conditions: 0 to 100 scale, 10 days
# Method in brief: as §3
# [12] = tested on: horseweed (Erigeron canadensis); experiment: Test A postemergence, horseweed; conditions: 10 days
# Description: as §1, §2
# [13] = tested on: oat, wild (wild oat, Avena fatua); experiment: Test A preemergence, oat, wild; conditions: 0 to 100 scale, 10 days
# Description: as §1, §2
# rice (Oryza sativa) = experiment: Test B flooded paddy test, rice; conditions: 250 g ai/ha, Flood; visually evaluated after 10 to 14 days
# Method in brief: as §4
# [14] = tested on: wheat (Triticum aestivum); experiment: Test A preemergence, wheat; conditions: 125 g ai/ha, 0 to 100 scale, 10 days
# [15] = tested on: oat, wild (wild oat, Avena fatua); experiment: Test A postemergence, oat, wild; conditions: 10 days
# Description: as §1, §2
# [16] = tested on: ducksalad (Heteranthera limosa); experiment: Test B flooded paddy test, ducksalad; conditions: 250 g ai/ha, Flood; visually evaluated after 10 to 14 days
# Method in brief: as §4
# [17] = tested on: blackgrass (Alopecurus myosuroides); experiment: Test A postemergence, blackgrass; conditions: 10 days
# Method in brief: as §3
# [18] = tested on: ryegrass, Italian (Italian ryegrass, Lolium multiflorum); experiment: Test A preemergence, ryegrass, Italian; conditions: 0 to 100 scale, 10 days
# Method in brief: as §3
# [19] = tested on: palmer amaranth (pigweed, palmer, Amaranthus palmeri); experiment: Test A postemergence, palmer amaranth; conditions: 10 days
# Description: as §1, §2
# [20] = tested on: barnyardgrass (Echinochloa crus-galli); experiment: Test B flooded paddy test, barnyardgrass; conditions: 250 g ai/ha, Flood; visually evaluated after 10 to 14 days
# Method in brief: as §4
# kochia (Bassia scoparia) [21] = experiment: Test A preemergence, kochia; conditions: 0 to 100 scale, 10 days
# Method in brief: as §3
# soybean (Glycine max) [22] = experiment: Test A preemergence, soybean; conditions: 0 to 100 scale, 10 days
# Description: as §1, §2
# [23] = tested on: ragweed (common ragweed, Ambrosia artemisiifolia); experiment: Test A postemergence, ragweed; conditions: 10 days
# Method in brief: as §3
# [24] = tested on: blackgrass (Alopecurus myosuroides); experiment: Test A preemergence, blackgrass; conditions: 0 to 100 scale, 10 days
# Description: as §1, §2
# [25] = tested on: wheat (Triticum aestivum); experiment: Test A postemergence, wheat; conditions: 10 days
# Method in brief: as §3
# corn (Zea mays) [26] = experiment: Test A preemergence, corn; conditions: 0 to 100 scale, 10 days
# Description: as §1, §2
# kochia (Bassia scoparia) [27] = experiment: Test A postemergence, kochia; conditions: 10 days
# Method in brief: as §3
# [28] = 31 g ai/ha, postemergence, 0 to 100 scale (0 no effect, 100 complete control)
# [29] = Postemergence, 125 g ai/ha, 0 to 100 scale
smiles,measurement,setting,value
Cn1nc(Cl)c(OCOC(=O)C(C)(C)C)c(-c2c3ccccc3cc3ccccc23)c1=O [Compound 19],"Plant response rating, Foxtail, Giant",[1]; [28],10
same,"Plant response rating, Foxtail, Giant",[1]; [29],50
same,"Plant response rating, Ryegrass, Italian",[2]; [28],0
same,"Plant response rating, Ryegrass, Italian",[2]; [29],10
same,"Plant response rating, Corn",corn (Zea mays) [3]; [28],10
same,"Plant response rating, Corn",corn (Zea mays) [3]; [29],20
same,"Plant response rating, Pigweed, Palmer",[4]; 31 g ai/ha,90
same,"Plant response rating, Pigweed, Palmer",[4]; 125 g ai/ha,100
same,"Plant response rating, Foxtail, Giant",[5]; 31 g ai/ha,10
same,"Plant response rating, Foxtail, Giant",[5]; 125 g ai/ha,70
same,"Plant response rating, Soybean",soybean (Glycine max) [6]; [28],0
same,"Plant response rating, Soybean",soybean (Glycine max) [6]; [29],30
same,"Plant response rating, Galium",[7]; [28],100
same,"Plant response rating, Galium",[7]; [29],100
same,"Plant response rating, Goosegrass",[8]; [28],10
same,"Plant response rating, Goosegrass",[8]; [29],10
same,"Plant response rating, Sedge, Umbrella (0 to 100 scale where 0 is no effect and 100 is complete control)",[9],85
same,"Plant response rating, Goosegrass",[10]; 31 g ai/ha,0
same,"Plant response rating, Goosegrass",[10]; 125 g ai/ha,30
same,"Plant response rating, Ragweed",[11]; 31 g ai/ha,80
same,"Plant response rating, Ragweed",[11]; 125 g ai/ha,80
same,"Plant response rating, Horseweed",[12]; [28],100
same,"Plant response rating, Horseweed",[12]; [29],90
same,"Plant response rating, Oat, Wild",[13]; 31 g ai/ha,0
same,"Plant response rating, Oat, Wild",[13]; 125 g ai/ha,0
same,"Plant response rating, Rice (0 to 100 scale where 0 is no effect and 100 is complete control)",rice (Oryza sativa),0
same,"Plant response rating, Wheat",[14],0
same,"Plant response rating, Oat, Wild",[15]; [28],10
same,"Plant response rating, Oat, Wild",[15]; [29],10
same,"Plant response rating, Ducksalad (0 to 100 scale where 0 is no effect and 100 is complete control)",[16],100
same,"Plant response rating, Blackgrass",[17]; [28],0
same,"Plant response rating, Blackgrass",[17]; [29],0
same,"Plant response rating, Ryegrass, Italian",[18]; 31 g ai/ha,0
same,"Plant response rating, Ryegrass, Italian",[18]; 125 g ai/ha,80
same,"Plant response rating, Pigweed, Palmer",[19]; [28],100
same,"Plant response rating, Pigweed, Palmer",[19]; [29],100
same,"Plant response rating, Barnyardgrass (0 to 100 scale where 0 is no effect and 100 is complete control)",[20],35
same,"Plant response rating, Kochia",kochia (Bassia scoparia) [21]; 31 g ai/ha,0
same,"Plant response rating, Kochia",kochia (Bassia scoparia) [21]; 125 g ai/ha,80
same,"Plant response rating, Soybean",soybean (Glycine max) [22]; 31 g ai/ha,0
same,"Plant response rating, Soybean",soybean (Glycine max) [22]; 125 g ai/ha,0
same,"Plant response rating, Ragweed",[23]; [28],100
same,"Plant response rating, Ragweed",[23]; [29],100
same,"Plant response rating, Blackgrass",[24]; 31 g ai/ha,0
same,"Plant response rating, Blackgrass",[24]; 125 g ai/ha,10
same,"Plant response rating, Wheat",[25]; [28],0
same,"Plant response rating, Wheat",[25]; [29],0
same,"Plant response rating, Corn",corn (Zea mays) [26]; 31 g ai/ha,0
same,"Plant response rating, Corn",corn (Zea mays) [26]; 125 g ai/ha,0
same,"Plant response rating, Kochia",kochia (Bassia scoparia) [27]; [28],40
same,"Plant response rating, Kochia",kochia (Bassia scoparia) [27]; [29],80
